Data as given in patent US20250161309A1, “TOPICAL COMPOSITIONS AND USES THEROF” (TOPADUR PHARMA AG, priority 2022, published 2025).

Tests used:
[1] = tested on: battery of 44 targets (SafetyScreen44); assay: Off-target selectivity, (radio)ligand binding and enzymatic assays, SafetyScreen44 (Eurofins Cerep); parameters: species or system human; details: 100 nM; all 44 targets of Table 4 (incl. hERG, PDE3A, PDE4D2, COX1, COX2); no significant responses
Protocol: In vitro pharmacological profiling is increasingly being used earlier in the drug discovery process to identify undesirable off-target activity profiles that could hinder or halt the development of candidate drugs or even lead to market withdrawal if discovered after a drug is approved (Bowes N, et. al., Nature Reviews Drug Discovery 11(12):909-22). Thus, the Off-target selectivity of Compound 1 at 100 nM was tested in (radio)ligand binding and enzymatic assays against a battery of 44 targets (SafetyScreen44™, atEurofins Cerep, France).

[2] = tested on: C57BL/6 mouse model for chemotherapy-induced alopecia (CIA); assay: Preventive C57BL/6 mouse model of cyclophosphamide (chemotherapy)-induced alopecia (CIA), topical administration; type: in vivo; details: female mice; for mice with visual melanogenesis in peeled skin: end of study; for Ki-67 mean score (positive cells near the root sheath of hair follicles, semi-quantitative grading): vehicle 0.4; for CD-31 mean score (perifollicular angiogenesis, semi-quantitative grading): vehicle group 0.8
Protocol: Female C57BL/6 mice (Vivo Bio Tech Ltd, Telangana, India) of 6 to 9 weeks of age in stable telogen phase of hair growth cycle were used.
100 μL of a clear solution of respective 0.0004%, 0.002% (w/v) concentrations of Cpd 1 in the corresponding vehicle (PEG-400:EtOH/7:3) (PEG-400: Central Drug House Ltd. Dehli, India; Ethanol: Changshu Hongsheng fine chemicals Co. Ltd. China) and the positive control, 2% solution (w/v) Minoxidil (Chemieliva, China) in the corresponding vehicle (PEG-400:EtOH/7:3) were topically applied to the depilated area on the dorsal back of female mice. The solutions covered a circular area of approximately 4 cm^2. The treatment regimen was twice daily for 7 days before Cyclophosphamide injection and afterwards for 3 weeks.
Animals (female) on day 1 weighted on average 18.8 g+0.2 ranging from 18.5 to 19.3 g. The animals were exposed by gentle clipping of hair from the dorsal back using an electric clipper. The following day, animals with clear skin were depilated using a depilatory cream. To evaluate the preventive potential of Cpd 1 in the chemotherapy-induced alopecia mouse model, animals were treated topically with 0.0004% and 0.002% Cpd 1, 2% Minoxidil and vehicle from day 1 onwards on the dorsal depilated skin with twice daily application regimen until day 10, when all the animals have attained the anagen stage. On day 11 after depilation, no application of the Cpd 1 or vehicle was done. This was considered a wash-out period. On day 12 after depilation, the animals were given intraperitoneal injection of cyclophosphamide (CYP-HiMedia Laboratories, Mumbai, India) at the dose of 150 mg/kg body weight. One day of wash-out period was given to the animals before restarting the treatment with Cpd 1. The treatment regimen was reinitiated with 0.0004% and 0.002% Cpd 1, 2% Minoxidil and vehicle in the respective groups for further 3 weeks. All the animals were observed from day 1 (experiment start) till day 30 (experiment termination and animal sacrifice day) and the hair growth score was recorded on a daily basis. The criteria for scoring of hair growth is as follows: no hair growth, pink skin—score 0; skin colour changes from pink to grey/light grey without visible hair growth—score 0.5; onset of anagen (skin colour changes from grey/light grey to dark grey/black without visible hair growth)—score 1; sparse hair growth—score 1.5; diffuse short hair growth—score 2, moderate hair growth—score 2.5 and dense, normal coat hair—score 3 (Lee B H, Lee J S, Kim Y C. Hair growth-promoting effects of lavender oil in C57BL/6 mice. Toxicol Res. (2016) 32(2):103-108). Photographs of the animals were captured before the initiation and during the course of the study. […]
After completion of the experiments all animals were sacrificed by euthanasia (Choi H I, Kang B M, Jang J, Hwang S T, Kwon O. Novel effect of sildenafil on hair growth. Biochem Biophys Res Commun. (2018) 505(3):685-691). The dorsal skin of each animal was then removed by peeling. The peeled skin was spread and checked visually for the induction of melanogenesis indicated by visual blackening on the reverse side of the skin. The skin samples were evenly spread on a pre-labelled glass slide and kept in 10% formalin until further use. Later, the skin samples were embedded in paraffin and sectioned at 5 microns using a microtome and the corresponding slides per animal were prepared. The slides obtained were used for Haematoxylin & Eosin (H&E) staining and in the transverse and longitudinal sections' photomicrographs data, the total number of follicles in the dermis and the sub cutis were determined for each animal. The skin thickness was measured using Image J 1.44 software. […]

What does the source list for `CCCOc1ccc(S(=O)(=O)N2CCC(CCO[N+](=O)[O-])(CCO[N+](=O)[O-])CC2)cc1-c1nc2c(CCC)cn(CC)c2c(=O)[nH]1` [Cpd 1, (1-((3-(5-ethyl-4-oxo-7-propyl-4,5-dihydro-3H-pyrrolo[3,2-d]pyrimidin-2-yl)-4-propoxyphenyl)sulfonyl)piperidine-4,4-diyl)bis(ethane-2,1-diyl) dinitrate]?
inhibition or stimulation to any of the targets [1]: < 50%; number of hair follicles, Cpd 1 compared with 2% Minoxidil-treated groups [2]: No significant differences; signs of alopecia after CYP administration on day 12 ([2]; 0.0004% (w/v)): minor signs of alopecia; mice with visual melanogenesis in peeled skin ([2]; 0.0004% (w/v)): 6/7; Ki-67 mean score (positive cells near the root sheath of hair follicles, semi-quantitative grading) ([2]; 0.0004% (w/v)): 1.4; CD-31 mean score (perifollicular angiogenesis, semi-quantitative grading) ([2]; 0.0004% (w/v)): 1.4; depth and development of dermal papilla and long hair shaft of hair follicles observed (longitudinal skin sections) ([2]; 0.0004% and 0.002%): majority of the animals; thickness of the skin compared to vehicle group ([2]; 0.0004% and 0.002%): slightly increase; skin color change (transition from telogen to anagen phase) compared to Minoxidil-treated group ([2]; 0.0004% and 0.002%, before CYP administration, majority of animals, end of first week of application): faster; increase in hair growth, 0.002% compared to 0.0004% ([2]; 0.002% (w/v)): slightly faster increase; signs of alopecia after CYP administration on day 12 ([2]; 0.002% (w/v)): no signs of alopecia; mice with visual melanogenesis in peeled skin ([2]; 0.002% (w/v)): 7/7; Ki-67 mean score (positive cells near the root sheath of hair follicles, semi-quantitative grading) ([2]; 0.002% (w/v)): 1.7; CD-31 mean score (perifollicular angiogenesis, semi-quantitative grading) ([2]; 0.002% (w/v)): 1.6; adverse effects on body weight ([2]; 30-day study, any of the groups): no adverse effects; behavioral changes, reaction to treatment or adverse effects in relation to general health ([2]; 30-day study, topical twice daily): no signs of behavioral changes, reaction to treatment or adverse effects; decrease in the mean hair growth after CYP administration ([2]; Compound 1 treated groups): no decrease; number of hair follicles in the subcutis layer of the skin and total follicle counts compared to vehicle group (H&E) ([2]; Compound 1 treated groups): significantly increased; animals with complete hair regrowth (hair growth score of 3) ([2]; Cpd 1 groups (0.0004% and 0.002%)): 7/7; increase in hair growth compared to Minoxidil and vehicle group ([2]; from day 6/7 onwards): faster increase
